According to the supplement of paper PMC11061612:

How the values were obtained:
Carboplatin = compound: C1CC(C1)(C(=O)[O-])C(=O)[O-].N.N.[Pt+2] [Carboplatin]; settings: max 10 µM
Procedure, shortened: (§1)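 Cancer cell lines in 1536-well plates (7.5 μl DMEM/F12 or RPMI, 10% FBS) were held 24 hours at 37°C and 5% CO2 and then dosed for 72 hours at a final DMSO of typically 0.2%. Viability was taken from CellTiter-Glo 2.0 luminescence, scaled between blank-well and DMSO-well means. Curves were fitted as two-parameter logistic models with a non-linear mixed effects model, from which the single-agent IC50 was taken.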

AZD5363 = compound: C1CN(CCC1(C(=O)N[C@@H](CCO)C2=CC=C(C=C2)Cl)N)C3=NC=NC4=C3C=CN4 [AZD5363]; settings: max 10 µM
Procedure, shortened: as §1

AZD1775 = compound: C=CCn1c(=O)c2cnc(Nc3ccc(N4CCN(C)CC4)cc3)nc2n1-c1cccc(C(C)(C)O)n1 [AZD1775]; settings: max 3 µM
Procedure, shortened: as §1

Trametinib = compound: CC(=O)Nc1cccc(-n2c(=O)n(C3CC3)c(=O)c3c(Nc4ccc(I)cc4F)n(C)c(=O)c(C)c32)c1 [Trametinib]; settings: max 1 µM
Procedure, shortened: as §1

Paclitaxel = compound: CC(=O)O[C@H]1C(=O)[C@@]2(C)[C@H]([C@H](OC(=O)c3ccccc3)[C@]3(O)C[C@H](OC(=O)[C@H](O)[C@@H](NC(=O)c4ccccc4)c4ccccc4)C(C)=C1C3(C)C)[C@]1(OC(C)=O)CO[C@@H]1C[C@@H]2O [Paclitaxel]; settings: max 3 µM
Procedure, shortened: as §1

Palbociclib = compound: CC(=O)c1c(C)c2cnc(Nc3ccc(N4CCNCC4)cn3)nc2n(C2CCCC2)c1=O [Palbociclib]; settings: max 10 µM
Procedure, shortened: as §1

AZD1390 = compound: CC(C)n1c(=O)n(C)c2cnc3cc(F)c(-c4ccc(OCCCN5CCCCC5)nc4)cc3c21 [AZD1390]; settings: max 0.3 µM
Procedure, shortened: as §1

Venetoclax = compound: CC1(C)CCC(CN2CCN(c3ccc(C(=O)NS(=O)(=O)c4ccc(NCC5CCOCC5)c([N+](=O)[O-])c4)c(Oc4cnc5[nH]ccc5c4)c3)CC2)=C(c2ccc(Cl)cc2)C1 [Venetoclax]; settings: max 1 µM
Procedure, shortened: as §1

Dasatinib = compound: CC1=C(C(=CC=C1)Cl)NC(=O)C2=CN=C(S2)NC3=CC(=NC(=N3)C)N4CCN(CC4)CCO [Dasatinib]; settings: max 2 µM
Procedure, shortened: as §1

SG3199 = compound: CC1=CN2[C@@H](C1)C=NC3=CC(=C(C=C3C2=O)OC)OCCCCCOC4=C(C=C5C(=C4)N=C[C@@H]6CC(=CN6C5=O)C)OC [SG3199]; settings: max 0.001 µM
Procedure, shortened: as §1

AZD2811 = compound: CCN(CCO)CCCOc1ccc2c(Nc3cc(CC(=O)Nc4cccc(F)c4)[nH]n3)ncnc2c1 [AZD2811]; settings: max 1 µM
Procedure, shortened: as §1

SN-38 = compound: CCc1c2c(nc3ccc(O)cc13)-c1cc3c(c(=O)n1C2)COC(=O)[C@]3(O)CC [SN-38]; settings: max 0.3 µM
Procedure, shortened: as §1

AZD0156 = compound: CN(C)CCCOc1ccc(-c2ccc3ncc4c(c3c2)n(C2CCOCC2)c(=O)n4C)cn1 [AZD0156]; settings: max 3 µM
Procedure, shortened: as §1

AZD4320 = compound: CN(CC[C@H](CSC1=CC=CC=C1)NC2=C(C=C(C=C2)S(=O)(=O)NC(=O)C3=CC=C(C=C3)N4CCC(CC4)[C@H](C5=CC=CC=C5C6=CC=C(C=C6)Cl)O)S(=O)(=O)C(F)(F)F)CCO [AZD4320]; settings: max 1 µM
Procedure, shortened: as §1

Alisertib = compound: COc1cc(Nc2ncc3c(n2)-c2ccc(Cl)cc2C(c2c(F)cccc2OC)=NC3)ccc1C(=O)O [Alisertib]; settings: max 10 µM
Procedure, shortened: as §1

Etoposide = compound: COc1cc([C@@H]2c3cc4c(cc3[C@@H](O[C@@H]3O[C@@H]5CO[C@@H](C)O[C@H]5[C@H](O)[C@H]3O)[C@H]3COC(=O)[C@H]23)OCO4)cc(OC)c1O [Etoposide]; settings: max 10 µM
Procedure, shortened: as §1

Gefitinib = compound: COc1cc2ncnc(Nc3ccc(F)c(Cl)c3)c2cc1OCCCN1CCOCC1 [Gefitinib]; settings: max 10 µM
Procedure, shortened: as §1

Prexasertib = compound: COc1cccc(OCCCN)c1-c1cc(Nc2cnc(C#N)cn2)n[nH]1 [Prexasertib]; settings: max 1 µM
Procedure, shortened: as §1

Doxorubicin = compound: COc1cccc2c1C(=O)c1c(O)c3c(c(O)c1C2=O)C[C@@](O)(C(=O)CO)C[C@@H]3O[C@H]1C[C@H](N)[C@H](O)[C@H](C)O1 [Doxorubicin]; settings: max 1 µM
Procedure, shortened: as §1

AZD5153 = compound: COc1nnc2ccc(N3CCC(c4ccc(OCCN5CCN(C)C(=O)[C@H]5C)cc4)CC3)nn12 [AZD5153]; settings: max 1 µM
Procedure, shortened: as §1

Lapatinib = compound: CS(=O)(=O)CCNCc1ccc(-c2ccc3ncnc(Nc4ccc(OCc5cccc(F)c5)c(Cl)c4)c3c2)o1 [Lapatinib]; settings: max 10 µM
Procedure, shortened: as §1

AZD8186 = compound: C[C@@H](Nc1cc(F)cc(F)c1)c1cc(C(=O)N(C)C)cc2c(=O)cc(N3CCOCC3)oc12 [AZD8186]; settings: max 10 µM
Procedure, shortened: as §1

Crizotinib = compound: C[C@@H](Oc1cc(-c2cnn(C3CCNCC3)c2)cnc1N)c1c(Cl)ccc(F)c1Cl [Crizotinib]; settings: max 10 µM
Procedure, shortened: as §1

Savolitinib = compound: C[C@@H](c1ccc2nccn2c1)n1nnc2ncc(-c3cnn(C)c3)nc21 [Savolitinib]; settings: max 1 µM
Procedure, shortened: as §1

AZD6738 = compound: C[C@@H]1COCCN1C2=NC(=NC(=C2)C3(CC3)[S@](=N)(=O)C)C4=C5C=CNC5=NC=C4 [AZD6738]; settings: max 10 µM
Procedure, shortened: as §1

AZD5991 = compound: Cc1c2c(nn1C)CSCc1cc(n(C)n1)CSc1cc(c3ccccc3c1)OCCCc1c(C(=O)O)n(C)c3c-2c(Cl)ccc13 [AZD5991]; settings: max 1 µM
Procedure, shortened: as §1

AZD7648 = compound: Cc1cc2ncnn2cc1Nc1ncc2c(n1)n(C1CCOCC1)c(=O)n2C [AZD7648]; settings: max 10 µM
Procedure, shortened: as §1

Taselisib = compound: Cc1nc(-c2cn3c(n2)-c2ccc(-c4cnn(C(C)(C)C(N)=O)c4)cc2OCC3)n(C(C)C)n1 [Taselisib]; settings: max 10 µM
Procedure, shortened: as §1

Selumetinib = compound: Cn1cnc2c(F)c(Nc3ccc(Br)cc3Cl)c(C(=O)NOCCO)cc21 [Selumetinib]; settings: max 10 µM
Procedure, shortened: as §1

SRA737 = compound: N#Cc1cnc(Nc2cc(NC[C@H]3CNCCO3)c(C(F)(F)F)cn2)cn1 [SRA737]; settings: max 10 µM
Procedure, shortened: as §1

MK-2206 = compound: NC1(c2ccc(-c3nc4ccn5c(=O)[nH]nc5c4cc3-c3ccccc3)cc2)CCC1 [MK-2206]; settings: max 10 µM
Procedure, shortened: as §1

Gemcitabine = compound: Nc1ccn([C@@H]2O[C@H](CO)[C@@H](O)C2(F)F)c(=O)n1 [Gemcitabine]; settings: max 0.3 µM
Procedure, shortened: as §1

[1] = compound: O=C(Nc1ccc2[nH]nc(-c3ccncc3)c2c1)[C@@H]1CCN(CC(=O)N2CCN(c3ccc(-c4ncccn4)cc3)CC2)C1; settings: max 5 µM
Procedure, shortened: as §1

Olaparib = compound: O=C(c1cc(Cc2n[nH]c(=O)c3ccccc23)ccc1F)N1CCN(C(=O)C2CC2)CC1 [Olaparib]; settings: max 10 µM
Procedure, shortened: as §1

5-Fluorouracil = compound: O=c1[nH]cc(F)c(=O)[nH]1 [5-Fluorouracil]; settings: max 20 µM
Procedure, shortened: as §1

Cell Line | IC50, cell viability 72 h (Carboplatin) | IC50, cell viability 72 h (AZD5363) | IC50, cell viability 72 h (AZD1775) | IC50, cell viability 72 h (Trametinib) | IC50, cell viability 72 h (Paclitaxel) | IC50, cell viability 72 h (Palbociclib) | IC50, cell viability 72 h (AZD1390) | IC50, cell viability 72 h (Venetoclax) | IC50, cell viability 72 h (Dasatinib) | IC50, cell viability 72 h (SG3199) | IC50, cell viability 72 h (AZD2811) | IC50, cell viability 72 h (SN-38) | IC50, cell viability 72 h (AZD0156) | IC50, cell viability 72 h (AZD4320) | IC50, cell viability 72 h (Alisertib) | IC50, cell viability 72 h (Etoposide) | IC50, cell viability 72 h (Gefitinib) | IC50, cell viability 72 h (Prexasertib) | IC50, cell viability 72 h (Doxorubicin) | IC50, cell viability 72 h (AZD5153) | IC50, cell viability 72 h (Lapatinib) | IC50, cell viability 72 h (AZD8186) | IC50, cell viability 72 h (Crizotinib) | IC50, cell viability 72 h (Savolitinib) | IC50, cell viability 72 h (AZD6738) | IC50, cell viability 72 h (AZD5991) | IC50, cell viability 72 h (AZD7648) | IC50, cell viability 72 h (Taselisib) | IC50, cell viability 72 h (Selumetinib) | IC50, cell viability 72 h (SRA737) | IC50, cell viability 72 h (MK-2206) | IC50, cell viability 72 h (Gemcitabine) | IC50, cell viability 72 h [1] | IC50, cell viability 72 h (Olaparib) | IC50, cell viability 72 h (5-Fluorouracil)
NCI-H69 (Small Cell Lung Carcinoma) | > 10000 nM | > 10000 nM | 2370 nM | > 1000 nM | 4.64 nM | > 10000 nM | > 300 nM | > 1000 nM | > 2000 nM | > 1 nM | 342 nM | 123 nM | > 3000 nM | 59.5 nM | 1110 nM | > 10000 nM | > 10000 nM | > 1000 nM | > 1000 nM | > 1000 nM | > 10000 nM | > 10000 nM | 5700 nM | > 1000 nM | > 10000 nM | > 1000 nM | > 10000 nM | 546 nM | > 10000 nM | > 10000 nM | 4550 nM | > 300 nM | > 5000 nM | > 10000 nM | > 20000 nM
NCI-H2795 (Mesothelioma) | > 10000 nM | > 10000 nM | > 3000 nM | 38.4 nM | 85.3 nM | > 10000 nM | > 300 nM | > 1000 nM | 578 nM | > 1 nM | > 1000 nM | 16.9 nM | > 3000 nM | > 1000 nM | 1300 nM | 3820 nM | > 10000 nM | 146 nM | 715 nM | 840 nM | > 10000 nM | > 10000 nM | 7780 nM | > 1000 nM | 9010 nM | 974 nM | > 10000 nM | 4730 nM | 3140 nM | > 10000 nM | > 10000 nM | 25.8 nM | 658 nM | > 10000 nM | 19600 nM
SK-OV-3 (Ovarian Carcinoma) | > 10000 nM | > 10000 nM | 2450 nM | > 1000 nM | 732 nM | > 10000 nM | > 300 nM | > 1000 nM | > 2000 nM | > 1 nM | > 1000 nM | > 300 nM | > 3000 nM | > 1000 nM | > 10000 nM | > 10000 nM | > 10000 nM | 35.5 nM | > 1000 nM | > 1000 nM | > 10000 nM | > 10000 nM | > 10000 nM | > 1000 nM | > 10000 nM | > 1000 nM | > 10000 nM | 2680 nM | > 10000 nM | > 10000 nM | > 10000 nM | > 300 nM | > 5000 nM | > 10000 nM | > 20000 nM
NCI-H2461 (Mesothelioma) | > 10000 nM | > 10000 nM | 630 nM | > 1000 nM | 735 nM | > 10000 nM | > 300 nM | > 1000 nM | > 2000 nM | > 1 nM | > 1000 nM | 91.8 nM | > 3000 nM | > 1000 nM | > 10000 nM | > 10000 nM | > 10000 nM | 48.2 nM | 379 nM | > 1000 nM | > 10000 nM | > 10000 nM | > 10000 nM | > 1000 nM | 4160 nM | > 1000 nM | > 10000 nM | 6270 nM | > 10000 nM | > 10000 nM | > 10000 nM | > 300 nM | > 5000 nM | > 10000 nM | > 20000 nM
SW1116 (Colorectal Carcinoma) | > 10000 nM | > 10000 nM | > 3000 nM | 242 nM | 2740 nM | > 10000 nM | > 300 nM | > 1000 nM | > 2000 nM | > 1 nM | > 1000 nM | > 300 nM | > 3000 nM | > 1000 nM | > 10000 nM | > 10000 nM | > 10000 nM | 824 nM | > 1000 nM | > 1000 nM | > 10000 nM | > 10000 nM | > 10000 nM | > 1000 nM | > 10000 nM | > 1000 nM | > 10000 nM | > 10000 nM | > 10000 nM | > 10000 nM | > 10000 nM | > 300 nM | > 5000 nM | > 10000 nM | > 20000 nM
